# Experimental data from US12599672B2, “KRAS proteolysis targeting chimeras” (PAQ Therapeutics Inc., priority 2023, dated 2026).
# Assays:
# Type in all cases: cell-based
# KRAS = biological target: T1, KRAS (Homo sapiens, UniProt P01116); assay: KRASamp MSD assay; settings: KE39 (KRAS amplified) cells, treated with test compounds for 24 hr, MSD readout of KRAS degradation
# T1 construct: endogenous in cells; host or cells: KE39 (KRAS amplified) cells
# Method in brief: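 KRAS-amplified KE39 cells treated with compound for 24 hr, then lysed in RIPA buffer with protease/phosphatase inhibitors. KRAS protein measured by MSD sandwich immunoassay against a recombinant WT KRAS standard curve; DC50 derived from curve fitting of degradation.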
# KRAS G12D = biological target: T2, KRAS G12D (Homo sapiens, UniProt P01116, G12D); assay: KRAS G12D HiBit assay; settings: AsPc-1-KRAS (G12D)-HiBit-KI cell, compound treatment for 24 hours; for DC50: absolute DC50
# T2 construct: AsPc-1-KRAS (G12D)-HiBit-KI cell (Pharmaron); host or cells: AsPc-1-KRAS (G12D)-HiBit-KI cells (HiBiT knock-in at the endogenous KRAS locus)
# Method in brief: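 Cells were treated for 24 h with compounds in a 3-fold, 10-point dilution series from a 0.3 mM DMSO stock, then equilibrated 15 min at room temperature. KRAS G12D HiBiT levels were read by luminescence after lytic Nano-Glo HiBiT reagent with LgBiT; inhibition calculated relative to 0.1% DMSO high control.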
# KRAS G12V = biological target: T3, KRAS G12V (Homo sapiens, UniProt P01116, G12V); assay: KRAS G12V HiBit assay; settings: SW620-KRAS (G12V)-HiBit-KI cells, compound treatment for 24 hours, class symbols
# T3 construct: SW620-KRAS (G12V)-HiBit-KI cell (Pharmaron); host or cells: SW620-KRAS (G12V)-HiBit-KI cells (HiBiT knock-in at the endogenous KRAS locus)
# Method in brief: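 HiBiT-tagged KRAS G12V cells treated 24 h with compound in a 3-fold, 10-point series (0.3 mM DMSO stock); lytic HiBiT reagent with LgBiT added after 15 min room-temperature equilibration. Degradation calculated against 0.1% DMSO high control.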
# [1] = numeric bounds given in place of class symbols
# T1 sequence (P01116 1-188 isoform P01116-2): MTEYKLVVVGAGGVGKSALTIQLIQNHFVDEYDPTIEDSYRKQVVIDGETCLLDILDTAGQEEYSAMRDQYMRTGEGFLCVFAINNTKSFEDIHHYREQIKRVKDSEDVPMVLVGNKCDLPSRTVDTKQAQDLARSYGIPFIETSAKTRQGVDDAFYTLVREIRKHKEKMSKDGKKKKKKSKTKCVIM
# T2 sequence (P01116 1-188 isoform P01116-2 G12D): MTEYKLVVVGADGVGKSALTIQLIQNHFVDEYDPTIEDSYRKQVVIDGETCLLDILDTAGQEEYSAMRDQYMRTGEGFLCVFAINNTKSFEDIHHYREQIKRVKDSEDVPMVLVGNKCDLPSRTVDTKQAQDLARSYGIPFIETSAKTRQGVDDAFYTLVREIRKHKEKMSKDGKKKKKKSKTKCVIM
# T3 sequence (P01116 1-188 isoform P01116-2 G12V): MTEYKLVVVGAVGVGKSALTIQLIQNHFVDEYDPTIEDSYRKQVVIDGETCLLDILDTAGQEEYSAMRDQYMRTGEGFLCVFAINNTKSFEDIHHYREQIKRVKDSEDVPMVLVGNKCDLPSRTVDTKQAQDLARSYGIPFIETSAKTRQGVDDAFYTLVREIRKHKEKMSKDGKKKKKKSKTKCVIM
Compound,DC50 (KRAS) [nM],DC50 (KRAS G12D; class symbols) [nM],DC50 (KRAS G12V) [nM],DC50 (KRAS G12D; [1]) [nM],Dmax (KRAS G12D; class symbols) [%]
"CCc1c(F)ccc2cc(O)cc(-c3ncc4c(N5CCC[C@@](C)(O)C5)nc(OC[C@]56CCCN5[C@H](COC(=O)NC5CCN(c7cccc8c7n(C)c(=O)n8C7CCC(=O)NC7=O)CC5)CC6)nc4c3F)c12 (stereo partly drawn) [Compound 311, ((3S,7aR)-7a-(((7-(8-ethyl-7-fluoro-3-hydroxynaphthalen-1-yl)-8-fluoro-4-((R)-3-hydroxy-3-methylpiperidin-1-yl)pyrido[4,3-d]pyrimidin-2-yl)oxy)methyl)hexahydro-1H-pyrrolizin-3-yl)methyl (1-(1-(2,6-dioxopiperidin-3-yl)-3-methyl-2-oxo-2,3-dihydro-1H-benzo[d]imidazol-4-yl)piperidin-4-yl)carbamate]",≥ 10,< 100,> 100,,
"CCc1c(F)ccc2cc(O)cc(-c3ncc4c(N5CCC[C@@](C)(O)C5)nc(OC[C@]56CCCN5[C@H](COC(=O)N5CCC(CN7CCC(c8ccc9c(c8)n(C)c(=O)n9C8CCC(=O)NC8=O)CC7)CC5)CC6)nc4c3F)c12 (stereo partly drawn) [Compound 390, ((3S,7aR)-7a-(((7-(8-ethyl-7-fluoro-3-hydroxynaphthalen-1-yl)-8-fluoro-4-((R)-3-hydroxy-3-methylpiperidin-1-yl)pyrido[4,3-d]pyrimidin-2-yl)oxy)methyl)hexahydro-1H-pyrrolizin-3-yl)methyl 4-((4-(1-(2,6-dioxopiperidin-3-yl)-3-methyl-2-oxo-2,3-dihydro-1H-benzo[d]imidazol-5-yl)piperidin-1-yl)methyl)piperidine-1-carboxylate]",1 to 10,< 100,< 10,,
"CCc1c(F)ccc2cc(O)cc(-c3cc4nc(OC[C@@]56CCCN5[C@H](COC(=O)N5CCC(CN7CCC(c8ccc9c(c8)n(C)c(=O)n9C8CCC(=O)NC8=O)CC7)CC5)CC6)nc(N5CCC[C@@](C)(O)C5)c4cn3)c12 (stereo partly drawn) [Compound 377, ((3S,7aS)-7a-(((7-(8-ethyl-7-fluoro-3-hydroxynaphthalen-1-yl)-4-((R)-3-hydroxy-3-methylpiperidin-1-yl)pyrido[4,3-d]pyrimidin-2-yl)oxy)methyl)hexahydro-1H-pyrrolizin-3-yl)methyl 4-((4-(1-(2,6-dioxopiperidin-3-yl)-3-methyl-2-oxo-2,3-dihydro-1H-benzo[d]imidazol-5-yl)piperidin-1-yl)methyl)piperidine-1-carboxylate]",< 1,< 100,< 10,,
"C#Cc1c(F)ccc2cc(O)cc(-c3ncc4c(N5CCC[C@@](C)(O)C5)nc(OC[C@@]56CCCN5[C@H](COC(=O)NC5CCN(C7CCN(c8ccc9c(c8)n(C)c(=O)n9C8CCC(=O)NC8=O)CC7)CC5)CC6)nc4c3F)c12 (stereo partly drawn) [Compound 324, ((3S,7aS)-7a-(((7-(8-ethynyl-7-fluoro-3-hydroxynaphthalen-1-yl)-8-fluoro-4-((R)-3-hydroxy-3-methylpiperidin-1-yl)pyrido[4,3-d]pyrimidin-2-yl)oxy)methyl)hexahydro-1H-pyrrolizin-3-yl)methyl (1′-(1-(2,6-dioxopiperidin-3-yl)-3-methyl-2-oxo-2,3-dihydro-1H-benzo[d]imidazol-5-yl)-[1,4′-bipiperidin]-4-yl)carbamate]",≥ 10,,> 100,> 100,
"C#Cc1c(F)ccc2cc(O)cc(-c3ncc4c(N5CCC[C@@](C)(O)C5)nc(OC[C@@]56CCCN5[C@H](COC(=O)N5CC(N7CCC(N8CCC(c9ccc%10c(c9)n(C)c(=O)n%10C9CCC(=O)NC9=O)CC8)CC7)C5)CC6)nc4c3F)c12 (stereo partly drawn) [Compound 322, ((3S,7aS)-7a-(((7-(8-ethynyl-7-fluoro-3-hydroxynaphthalen-1-yl)-8-fluoro-4-((R)-3-hydroxy-3-methylpiperidin-1-yl)pyrido[4,3-d]pyrimidin-2-yl)oxy)methyl)hexahydro-1H-pyrrolizin-3-yl)methyl 3-(4-(1-(2,6-dioxopiperidin-3-yl)-3-methyl-2-oxo-2,3-dihydro-1H-benzo[d]imidazol-5-yl)-[1,4′-bipiperidin]-1′-yl)azetidine-1-carboxylate]",≥ 10,,> 100,> 100,
"Cn1c(=O)n(C2CCC(=O)NC2=O)c2ccc(N3CCC(CN4CCN(C(=O)OC[C@@H]5CC[C@]6(COc7nc(N8CCC[C@@](C)(O)C8)c8cnc(-c9cc(O)cc%10ccc(F)cc9%10)c(F)c8n7)CCCN56)CC4)CC3)cc21 (stereo partly drawn) [Compound 445, ((3S,7aS)-7a-(((8-fluoro-7-(7-fluoro-3-hydroxynaphthalen-1-yl)-4-((R)-3-hydroxy-3-methylpiperidin-1-yl)pyrido[4,3-d]pyrimidin-2-yl)oxy)methyl)hexahydro-1H-pyrrolizin-3-yl)methyl 4-((1-(1-(2,6-dioxopiperidin-3-yl)-3-methyl-2-oxo-2,3-dihydro-1H-benzo[d]imidazol-5-yl)piperidin-4-yl)methyl)piperazine-1-carboxylate]",< 1,< 100,< 10,,
"C#Cc1c(F)ccc2cc(O)cc(-c3ncc4c(N5CCC[C@@](C)(O)C5)nc(OC[C@@]56CCCN5[C@H](COC(=O)N5CCC(OCCC#Cc7ccc8c(c7)n(C)c(=O)n8C7CCC(=O)NC7=O)CC5)CC6)nc4c3F)c12 (stereo partly drawn) [Compound 369, ((3S,7aS)-7a-(((7-(8-ethynyl-7-fluoro-3-hydroxynaphthalen-1-yl)-8-fluoro-4-((R)-3-hydroxy-3-methylpiperidin-1-yl)pyrido[4,3-d]pyrimidin-2-yl)oxy)methyl)hexahydro-1H-pyrrolizin-3-yl)methyl 4-((4-(1-(2,6-dioxopiperidin-3-yl)-3-methyl-2-oxo-2,3-dihydro-1H-benzo[d]imidazol-5-yl)but-3-yn-1-yl)oxy)piperidine-1-carboxylate]",1 to 10,< 100,< 10,,
"CCc1c(F)ccc2cc(O)cc(-c3ncc4c(N5CCC[C@@](C)(O)C5)nc(OC[C@]56CCCN5[C@H](COC(=O)N5CCC(CCCOc7ccc8c(c7)n(C)c(=O)n8C7CCC(=O)NC7=O)CC5)CC6)nc4c3F)c12 (stereo partly drawn) [Compound 302, ((3S,7aR)-7a-(((7-(8-ethyl-7-fluoro-3-hydroxynaphthalen-1-yl)-8-fluoro-4-((R)-3-hydroxy-3-methylpiperidin-1-yl)pyrido[4,3-d]pyrimidin-2-yl)oxy)methyl)hexahydro-1H-pyrrolizin-3-yl)methyl 4-(3-((1-(2,6-dioxopiperidin-3-yl)-3-methyl-2-oxo-2,3-dihydro-1H-benzo[d]imidazol-5-yl)oxy)propyl)piperidine-1-carboxylate]",< 1,,< 10,> 100,
"Cn1c(=O)n(C2CCC(=O)NC2=O)c2ccc(C3CCN(C4CC5(CCN(C(=O)OC[C@@H]6CC[C@]7(COc8nc(N9CCC[C@@](C)(O)C9)c9cnc(-c%10cc(O)cc%11ccc(F)cc%10%11)cc9n8)CCCN67)CC5)C4)CC3)cc21 (stereo partly drawn) [Compound 474, ((3S,7aS)-7a-(((7-(7-fluoro-3-hydroxynaphthalen-1-yl)-4-((R)-3-hydroxy-3-methylpiperidin-1-yl)pyrido[4,3-d]pyrimidin-2-yl)oxy)methyl)hexahydro-1H-pyrrolizin-3-yl)methyl 2-(4-(1-(2,6-dioxopiperidin-3-yl)-3-methyl-2-oxo-2,3-dihydro-1H-benzo[d]imidazol-5-yl)piperidin-1-yl)-7-azaspiro[3.5]nonane-7-carboxylate]",< 1,< 100,< 10,,
"CCc1c(F)ccc2cc(O)cc(-c3ncc4c(N5CCC[C@@](C)(O)C5)nc(OC[C@@]56CCCN5[C@H](COC(=O)N5CCC(CN7CCC(c8ccc9c(C%10CCC(=O)NC%10=O)nn(C)c9c8)CC7)CC5)CC6)nc4c3F)c12 (stereo partly drawn) [Compound 99, [(3S,8S)-8-[[7-(8-ethyl-7-fluoro-3-hydroxy-1-naphthyl)-8-fluoro-4-[(3R)-3-hydroxy-3-methyl-1-piperidyl]pyrido[4,3-d]pyrimidin-2-yl]oxymethyl]-1,2,3,5,6,7-hexahydropyrrolizin-3-yl]methyl 4-[[4-[3-(2,6-dioxo-3-piperidyl)-1-methyl-indazol-6-yl]-1-piperidyl]methyl]piperidine-1-carboxylate]",< 1,< 100,< 10,,> 50
"C#Cc1c(F)ccc2cc(O)cc(-c3ncc4c(N5CCC[C@@](C)(O)C5)nc(OC[C@@]56CCCN5[C@H](COC(=O)N5CCC7(CCC(CN8CCC(c9ccc%10c(c9)n(C)c(=O)n%10C9CCC(=O)NC9=O)CC8)CC7)CC5)CC6)nc4c3F)c12 (stereo partly drawn) [Compound 321, ((3S,7aS)-7a-(((7-(8-ethynyl-7-fluoro-3-hydroxynaphthalen-1-yl)-8-fluoro-4-((R)-3-hydroxy-3-methylpiperidin-1-yl)pyrido[4,3-d]pyrimidin-2-yl)oxy)methyl)hexahydro-1H-pyrrolizin-3-yl)methyl 9-((4-(1-(2,6-dioxopiperidin-3-yl)-3-methyl-2-oxo-2,3-dihydro-1H-benzo[d]imidazol-5-yl)piperidin-1-yl)methyl)-3-azaspiro[5.5]undecane-3-carboxylate]",1 to 10,< 100,< 10,,
